In article PMC10310851 (Signal Transduction and Targeted Therapy, 2023):
Like-named read-outs stand apart in the source and are kept apart here.

Experiments:
[1] = test system: NSCLC with ROS1 rearrangements; set-up: method as in PMID 28520527; details: cited from earlier work
ROS1-rearranged NSCLC [2] = test system: ROS1-rearranged NSCLC; set-up: method as in PMID 34511132; details: first-line, cited from earlier work
ROS1-rearranged NSCLC [3] = test system: ROS1-rearranged NSCLC; set-up: method as in PMID 31416808; details: 2/6, METROS trial ref 13; cited from earlier work
[4] = test system: Gastric cancer cell SNU-5; test: Growth inhibition of cancer cell lines: SNU-5; assay type: cell-based; details: Homo sapiens
[5] = test system: ROS1-positive advanced NSCLC; set-up: method as in PMID 29596029; details: cited from earlier work
[6] = set-up: method as in PMID 31751012; details: cited from earlier work
[7] = test system: Lung cancer cell NCI-H2228; test: Growth inhibition of cancer cell lines: NCI-H2228; assay type: cell-based; details: Homo sapiens
[8] = set-up: method as in PMID 25264305; details: cited from earlier work
[9] = test system: Lung cancer cell NCI-H3122; test: Growth inhibition of cancer cell lines: NCI-H3122; assay type: cell-based; details: Homo sapiens
[10] = test system: ROS1 fusion-positive NSCLC; details: cited from earlier work
[11] = no radiotherapy within the preceding 6 months ref 21
[12] = radiotherapy within the preceding 6 months ref 21

Compound: Cc1cc(Nc2ncc(Cl)c(Nc3ccccc3S(=O)(=O)C(C)C)n2)c(OC(C)C)cc1C1CCNCC1 [ceritinib]
- Intracranial ORR [1]: 29%

Compound: C[C@@H](Oc1cc(-c2cnn(C3CCNCC3)c2)cnc1N)c1c(Cl)ccc(F)c1Cl [crizotinib]
- Median PFS (ROS1-rearranged NSCLC [2]; non-CD74-ROS1 fusions ref 27): 21.0 months
- Median PFS (ROS1-rearranged NSCLC [2]; tumor harboring CD74-ROS1 ref 27): 17.0 months
- Intracranial ORR (ROS1-rearranged NSCLC [3]): 33%
- IC50 [4]: 29.1 nM
- ORR by IRC ([5]; OO 12-01 study ref 15): 71.7%
- DCR [5]: 88.2%
- Median PFS [5]: 15.9 months
- Rate of drug dose interruptions due to TRAEs [5]: 22.8%
- Any grade elevated ALT [6]: 14%
- Any grade elevated AST [6]: 22%
- Grade III or higher elevated ALT [6]: 4%
- Grade III or higher elevated AST [6]: 2%
- IC50 [7]: 358 nM
- Dizziness [8]: 16%
- Dysgeusia [8]: 18%
- Ophthalmological AEs [8]: 82%
- Reduced neutrophil count [8]: 12%
- IC50 [9]: 214 nM

Compound: CN1CCN(c2ccc(C(=O)Nc3n[nH]c4ccc(Cc5cc(F)cc(F)c5)cc34)c(NC3CCOCC3)c2)CC1 [entrectinib]
- DCR [10]: 75.8%
- Intracranial ORR [10]: 79.2%
- Median PFS [10]: 15.7 months
- Median intracranial PFS ([10]; measurable central nervous system lesions at baseline ref 21): 12.0 months
- Intracranial ORR [10, 11]: 46.2%
- Intracranial PFS [10, 11]: 8.8 months
- ORR ([10]; overall patient population ref 21): 67.1%
- ORR ([10]; patients who had brain metastases at baseline ref 21): 62.5%
- ORR ([10]; patients with CD74-ROS1 fusions ref 21): 72.9%
- Intracranial ORR [10, 12]: 60%
- Intracranial PFS [10, 12]: 16.1 months
